# Laboratory results taken from patent US20240245711A1, “A 19-NOR C3,3-DISUBSTITUTED C21-N-PYRAZOLYL STEROID FOR THE TREATMENT OF MAJOR DEPRESSIVE DISORDER” (Sage Therapeutics, Inc., priority 2021, published 2024).
# “Also recorded” adds a separate entry of the source.
# Test system: adult subjects with Major Depressive Disorder
# Assay: Phase 3 open-label 1-year study: safety and tolerability (TEAEs, SAEs, C-SSRS)
# Assay type: in vivo, human
# Experimental: Primary Objective: To determine the safety and tolerability of initial treatment and re-treatment(s) with Compound (1) in adults with Major Depressive Disorder (MDD) currently experiencing a major depressive episode (MDE) over a 1-year period.
# Study Population: Subjects were 18-75 years old, diagnosed with major depressive disorder (MDD) with a MADRS total score of ≥28 and a HAM-D total score of ≥20 at Screening and Day 1 (prior to dosing).
# Treatment Groups: The 30 mg and 50 mg dose groups were separated by time of enrollment. The study is comprised of two cohorts: one with Compound (1) 30 mg as a starting dose (30 mg Cohort: n=725), an initial cohort with Compound (1) 50 mg as a starting dose (50 mg Cohort: n=199). A patient receiving Compound (1) 30 mg could be dose reduced to 20 mg and patients receiving Compound (1) 50 mg could be dose reduced to 40 mg (based on tolerability). In all cohorts, Compound (1) is self-administered by patients as an oral therapy once nightly with food for 14 days.
# The study has a Screening Period of up to 28 days, a 14-day Treatment Period, and up to 1 year of Follow-up. FIG. 1 is an overview of the study.
# Antidepressants were permitted provided subjects were on a stable dose for at least 60 days prior to Day 1 and agreed to continue on the stable dose through the follow-up period (Day 42). Initiation of new antidepressants or any other medications that may potentially have an impact on efficacy or safety endpoints were not allowed between screening and completion of the Day 42 assessments.
# Eligible subjects were given Compound (1)—to be taken at home in the evening with meal.
# Subjects who continued in the Observation Period were monitored remotely via PHQ-9 assessment every two weeks. If PHQ-9 score was >=10 at any assessment, PHQ-9 assessment was switch to every week until the score came down below 10 or the subject was dosed with Compound (1) in a subsequent cycle, whichever was earlier. A subject was to come back to the site for HAM-D assessment within a week of PHQ-9 score >=10; if the HAM-D total score >=20 and at least 56 days had elapsed since the last dose of Compound (1), another dosing cycle of Compound (1) were to start. If any of these criteria were not met, the subject couldn't be treated with Compound (1) at that time. Without the trigger of PHQ-9>=10 the subject was to have a clinic visit every 8 weeks. A subject could have at most 5 cycles of treatment within a year. FIG. 2 is a depiction of the eligibility criteria of the study.
# Dose reduction from 30 mg to 20 mg or 50 mg to 40 mg was allowed in any treatment cycle if the safety and/or tolerability of the subject so warrants. […] Subjects who dose reduced from 30 mg to 20 mg still started with 30 mg in the next treatment cycle.
# The cohorts pertaining to the different doses that the subjects received were defined as following: • 50 mg cohort: This cohort includes subjects who have initiated treatment with 50 mg and received re-treatment with 50 mg only. • 30 mg cohort: This cohort includes subjects who have initiated treatment with 30 mg regardless of the dose they have received in re-treatments. • Low dose cohort: This cohort includes subjects who have initiated treatment with 30 mg and received re-treatment with 30 mg only. • Dose switch cohort: This cohort includes subjects who have received initial treatment with 30 mg and at least one subsequent re-treatment with 50 mg. • Study Period X: starts on the date of the first dose of Compound (1) in cycle X and goes up to one day prior to the first dose of the next cycle. […]
# [1] = 50 mg Cohort, one-year follow-up (Example 4)
# [2] = Low Dose Cohort, ATD use at period-specific baseline No, Study Period 1
# [3] = Low Dose Cohort, ATD use at period-specific baseline No, Study Period 2
compound,measurement,setting,value
"C[C@@]1(O)CC[C@H]2[C@H](CC[C@@H]3[C@@H]2CC[C@]2(C)[C@@H](C(=O)Cn4cc(C#N)cn4)CC[C@@H]32)C1 [Compound (1), 1-(2-((3R,5R,8R,9R,10S,13S,14S,17S)-3-hydroxy-3,13-dimethylhexadecahydro-1H-cyclopenta[a]phenanthren-17-yl)-2-oxoethyl)-1H-pyrazole-4-carbonitrile]",Subjects with at least one TEAE leading to study drug discontinuation,30 mg Cohort (N = 725),19 (2.6%)
same,Subjects with at least one TEAE leading to study withdrawal,30 mg Cohort (N = 725),32 (4.4%)
same,Subjects with at least one serious TEAE,30 mg Cohort (N = 725),20 (2.8%)
same,"TEAE severity Mild, subjects n (%)",30 mg Cohort (N = 725),200 (27.6%)
same,"TEAE severity Moderate, subjects n (%)",30 mg Cohort (N = 725),248 (34.2%)
same,"TEAE severity Severe / subjects with at least one severe TEAE, n (%)",30 mg Cohort (N = 725),45 (6.2%)
same,Events of loss of consciousness,"30 mg and 50 mg, as of the cutoff date",No events of loss of consciousness
same,Possibly or probably related SAEs,50 mg Cohort,Confusional state; also recorded: Asthenia; also recorded: Delirium
same,Subjects with at least one serious TEAE,50 mg Cohort (N = 199),7 (3.5%)
same,"TEAE Arthralgia, subjects n (%)",50 mg Cohort (N = 199),1 (0.5%)
same,"TEAE Back Pain, subjects n (%)",50 mg Cohort (N = 199),0%
same,"TEAE Diarrhea, subjects n (%)",50 mg Cohort (N = 199),4 (2.0%)
same,"TEAE Dizziness, subjects n (%)",50 mg Cohort (N = 199),30 (15.1%)
same,"TEAE Dry Mouth, subjects n (%)",50 mg Cohort (N = 199),7 (3.5%)
same,"TEAE Fatigue, subjects n (%)",50 mg Cohort (N = 199),5 (2.5%)
same,"TEAE Headache, subjects n (%)",50 mg Cohort (N = 199),20 (10.1%)
same,"TEAE Insomnia, subjects n (%)",50 mg Cohort (N = 199),10 (5.0%)
same,"TEAE Nausea, subjects n (%)",50 mg Cohort (N = 199),11 (5.5%)
same,"TEAE Sedation, subjects n (%)",50 mg Cohort (N = 199),18 (9.0%)
same,"TEAE Somnolence, subjects n (%)",50 mg Cohort (N = 199),29 (14.6%)
same,"TEAE Upper Respiratory Tract Infection, subjects n (%)",50 mg Cohort (N = 199),1 (0.5%)
same,"TEAE severity Mild, subjects n (%)",50 mg Cohort (N = 199),45 (22.6%)
same,"TEAE severity Moderate, subjects n (%)",50 mg Cohort (N = 199),65 (32.7%)
same,"TEAE severity Severe / subjects with at least one severe TEAE, n (%)",50 mg Cohort (N = 199),15 (7.5%)
same,"Withdrawn in Treatment Cycle 1: Adverse event, n (%)",50 mg Cohort (n = 199),11 (5.5%)
same,Maximum severity of TEAEs reported by the majority of subjects,[1],mild to moderate
same,"TEAE Dizziness, subjects n (%)",[1],15.1%
same,"TEAE Headache, subjects n (%)",[1],12.7%
same,"TEAE Insomnia, subjects n (%)",[1],7.0%
same,"TEAE Nausea, subjects n (%)",[1],6.5%
same,"TEAE Sedation, subjects n (%)",[1],10.1%
same,"TEAE Somnolence, subjects n (%)",[1],16.1%
same,"TEAE tremor, subjects (n; %)",[1],5.5%
same,Subjects reporting TEAEs leading to discontinuation of study drug,"50 mg Cohort, one-year follow-up (Example 4), 13/199",6.5%
same,Subjects reporting TEAEs leading to withdrawal from study,"50 mg Cohort, one-year follow-up (Example 4), 16/199",8.0%
same,Subjects reporting at least one adverse event,"50 mg Cohort, one-year follow-up (Example 4), 137 of 199",68.8%
same,"Subjects reporting TEAEs leading to dose reduction, n/N","50 mg cohort, Cycle 2",2/26
same,Proportion of subjects reporting TEAEs,"50 mg cohort, as printed in b423 (46/76)",60.5%
same,Subjects reporting TEAEs leading to dose reduction,"50 mg cohort, overall (34/199)",17.1%
same,Tolerability,"Compound (1) 50 mg, 50 mg Cohort followed up to one year (Example 4)",generally well-tolerated
same,Subjects with at least one serious TEAE,Dose Switch Cohort (N = 80),1 (1.3%)
same,"TEAE Arthralgia, subjects n (%)",Dose Switch Cohort (N = 80),5 (6.3%)
same,"TEAE Back Pain, subjects n (%)",Dose Switch Cohort (N = 80),5 (6.3%)
same,"TEAE Diarrhea, subjects n (%)",Dose Switch Cohort (N = 80),11 (13.8%)
same,"TEAE Dizziness, subjects n (%)",Dose Switch Cohort (N = 80),7 (8.8%)
same,"TEAE Dry Mouth, subjects n (%)",Dose Switch Cohort (N = 80),3 (3.8%)
same,"TEAE Fatigue, subjects n (%)",Dose Switch Cohort (N = 80),8 (10.0%)
same,"TEAE Headache, subjects n (%)",Dose Switch Cohort (N = 80),13 (16.3%)
same,"TEAE Insomnia, subjects n (%)",Dose Switch Cohort (N = 80),5 (6.3%)
same,"TEAE Nausea, subjects n (%)",Dose Switch Cohort (N = 80),3 (3.8%)
same,"TEAE Sedation, subjects n (%)",Dose Switch Cohort (N = 80),11 (13.8%)
same,"TEAE Somnolence, subjects n (%)",Dose Switch Cohort (N = 80),10 (12.5%)
same,"TEAE Upper Respiratory Tract Infection, subjects n (%)",Dose Switch Cohort (N = 80),5 (6.3%)
same,"TEAE severity Mild, subjects n (%)",Dose Switch Cohort (N = 80),13 (16.3%)
same,"TEAE severity Moderate, subjects n (%)",Dose Switch Cohort (N = 80),36 (45.0%)
same,"TEAE severity Severe / subjects with at least one severe TEAE, n (%)",Dose Switch Cohort (N = 80),8 (10.0%)
same,Proportion of subjects reporting TEAEs,"Dose Switch cohort, as printed in b423 (37/48)",77.1%
same,Subjects reporting TEAEs leading to dose reduction,"Dose switch cohort, Cycle 1 while on 30 mg",2.5%
same,Subjects reporting TEAEs leading to dose reduction,"Dose switch cohort, Cycle 2 while on 30 mg",2.5%
same,Subjects reporting TEAEs leading to dose reduction,"Dose switch cohort, Cycle 3 while switched to 50 mg",4.2%
same,Subjects reporting TEAEs leading to dose reduction,"Dose switch cohort, Cycle 4 while switched to 50 mg",3.8%
same,Subjects reporting TEAEs leading to dose reduction,"Dose switch cohort, Cycle 5 while switched to 50 mg",17.4%
same,Subjects reporting TEAEs leading to dose reduction,"Dose switch cohort, overall (12/80)",15.0%
same,Possibly or probably related SAEs,Low Dose Cohort,Suicidal ideation
same,Subjects with at least one serious TEAE,Low Dose Cohort (N = 645),19 (2.9%)
same,"TEAE Arthralgia, subjects n (%)",Low Dose Cohort (N = 645),14 (2.2%)
same,"TEAE Back Pain, subjects n (%)",Low Dose Cohort (N = 645),18 (2.8%)
same,"TEAE Diarrhea, subjects n (%)",Low Dose Cohort (N = 645),43 (6.7%)
same,"TEAE Dizziness, subjects n (%)",Low Dose Cohort (N = 645),47 (7.3%)
same,"TEAE Dry Mouth, subjects n (%)",Low Dose Cohort (N = 645),40 (6.2%)
same,"TEAE Fatigue, subjects n (%)",Low Dose Cohort (N = 645),27 (4.2%)
same,"TEAE Headache, subjects n (%)",Low Dose Cohort (N = 645),90 (14.0%)
same,"TEAE Insomnia, subjects n (%)",Low Dose Cohort (N = 645),31 (4.8%)
same,"TEAE Nausea, subjects n (%)",Low Dose Cohort (N = 645),25 (3.9%)
same,"TEAE Sedation, subjects n (%)",Low Dose Cohort (N = 645),29 (4.5%)
same,"TEAE Somnolence, subjects n (%)",Low Dose Cohort (N = 645),76 (11.8%)
same,"TEAE Upper Respiratory Tract Infection, subjects n (%)",Low Dose Cohort (N = 645),52 (8.1%)
same,"TEAE severity Mild, subjects n (%)",Low Dose Cohort (N = 645),187 (29.0%)
same,"TEAE severity Moderate, subjects n (%)",Low Dose Cohort (N = 645),212 (32.9%)
same,"TEAE severity Severe / subjects with at least one severe TEAE, n (%)",Low Dose Cohort (N = 645),37 (5.7%)
same,"Withdrawn in Treatment Cycle 1: Adverse event, n (%)",Low Dose Cohort (n = 645),15 (2.3%)
same,Subjects with a TEAE leading to study drug discontinuation,[2],(3.2%)
same,Subjects with a Treatment cycle period AE leading to study withdrawal,[2],(3.7%)
same,Subjects with at least one TEAE,[2],(67.5%)
same,Subjects with at least one Treatment cycle period TEAE,[2],(53.6%)
same,Subjects with at least one Treatment cycle period serious TEAE,[2],(1.3%)
same,Subjects with at least one Treatment cycle period severe TEAE,[2],(2.6%)
same,Subjects with at least one Treatment period AE,[2],(51.2%)
same,Subjects with a TEAE leading to study drug discontinuation,[3],1 (0.8%)
same,Subjects with a Treatment cycle period AE leading to study withdrawal,[3],3 (2.5%)
same,Subjects with at least one TEAE,[3],75 (63.6%)
same,Subjects with at least one Treatment cycle period TEAE,[3],58 (49.2%)
same,Subjects with at least one Treatment cycle period serious TEAE,[3],0%
same,Subjects with at least one Treatment cycle period severe TEAE,[3],2 (1.7%)
